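48-hour exposure; five concentrations; linearly interpolated endpoints. Abbreviation: GI50, concentration required for 50% inhibition of growth.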 Calls of active or inactive are those of the source. No stated cut-off is given here; in the data, active = GI50 up to about 1.1 µM and inactive = higher.
How the values were obtained:
Assay in all cases: NCI anticancer screen, dose series, 48 h
[1] = test system: SNB-19
[2] = test system: T47D
[3] = test system: UACC-62
[4] = test system: A498
[5] = test system: COLO 205
[6] = test system: MOLT-4
[7] = test system: SK-OV-3
[8] = test system: OVCAR-5
[9] = test system: EKVX
[10] = test system: OVCAR-3
[11] = test system: Malme-3M
[12] = test system: HCC 2998
[13] = test system: SF-295
[14] = test system: Hs-578T
[15] = test system: BT-549
[16] = test system: MDA-MB-231
[17] = test system: M14
[18] = test system: TK-10
[19] = test system: HOP-92
[20] = test system: DU-145
[21] = test system: HCT-116
[22] = test system: MDA-MB-435
[23] = test system: RPMI-8226
[24] = test system: PC-3
[25] = test system: HOP-62
[26] = test system: SN12C
[27] = test system: CCRF-CEM
[28] = test system: IGROV-1
[29] = test system: LOX IMVI
[30] = test system: MDA-N
[31] = test system: CAKI-1
[32] = test system: UO-31
[33] = test system: SW-620
[34] = test system: SK-MEL-5
[35] = test system: HT-29
[36] = test system: NCI/ADR-RES
[37] = test system: NCI-H460
[38] = test system: ACHN
[39] = test system: HCT-15
[40] = test system: U-251
[41] = test system: 786-0
[42] = test system: HL-60
[43] = test system: OVCAR-4
[44] = test system: MCF7
[45] = test system: SNB-75
[46] = test system: NCI-H522
[47] = test system: OVCAR-8
[48] = test system: SK-MEL-2
[49] = test system: KM12
[50] = test system: SF-539
[51] = test system: SR
[52] = test system: A549
[53] = test system: SK-MEL-28
[54] = test system: NCI-H23
[55] = test system: UACC-257
[56] = test system: RXF 393
[57] = test system: SF-268
[58] = test system: K562
[59] = test system: NCI-H226

Measured: GI50

CC(=O)NC(CS)C(=O)O (stereo not drawn)
inactive: [1] 16400 µM | [2] 26900 µM | [3] 27300 µM | [4] 3970 µM | [5] 14600 µM | [6] 16400 µM | [7] 44200 µM | [8] 14500 µM | [9] 4670 µM | [10] 16800 µM | [11] 8220 µM | [12] 20700 µM | [13] 14600 µM | [14] 18700 µM | [15] > 100 µM | [16] 11300 µM | [17] 7360 µM | [18] 10000 µM | [19] 12500 µM | [20] 21400 µM | [21] 17600 µM | [22] 17800 µM | [23] 746 µM | [24] 33200 µM | [25] 12800 µM | [26] 26300 µM | [27] > 100 µM | [28] 2610 µM | [29] > 100 µM | [30] > 100 µM | [31] 6030 µM | [32] 7640 µM | [33] 11000 µM | [34] 14500 µM | [35] 14700 µM | [36] 22600 µM | [37] 18400 µM | [38] 16600 µM | [40] 19300 µM | [41] 21600 µM | [42] 34200 µM | [43] 50900 µM | [44] 25200 µM | [45] 10700 µM | [46] 6500 µM | [47] 24700 µM | [48] 18500 µM | [49] 33300 µM | [50] 26100 µM | [51] 44100 µM | [52] 15700 µM | [53] 19900 µM | [54] 20200 µM | [55] 21400 µM | [56] 21900 µM | [57] 20900 µM | [58] 21700 µM | [59] 10500 µM
12900 µM: [39]

CC(C)(CN1CCCCC1)C(/C=C/c1ccc(Cl)cc1)=N\NC(=O)N/N=C(/C=C/c1ccc(Cl)cc1)C(C)(C)CN1CCCCC1
inactive: [1] 3.4 µM | [2] 3.44 µM | [3] 3.53 µM | [4] 7.69 µM | [5] 4.22 µM | [6] 3.11 µM | [7] 6.68 µM | [8] 3.95 µM | [9] 5.4 µM | [10] 3.21 µM | [11] 8.38 µM | [12] 5.51 µM | [13] 10 µM | [14] 5.9 µM | [15] 3.59 µM | [16] 2.65 µM | [17] 3.41 µM | [18] 10.5 µM | [19] 2.38 µM | [20] 6.01 µM | [21] 3.19 µM | [22] 3.55 µM | [23] 5.98 µM | [24] 7.24 µM | [25] 4.42 µM | [26] 3.85 µM | [27] 2.64 µM | [28] 2.98 µM | [29] 2.3 µM | [30] 3.34 µM | [31] 2.39 µM | [32] 3.49 µM | [33] 2.72 µM | [34] 5.14 µM | [35] 3.58 µM | [36] 3.86 µM | [37] 3.21 µM | [38] 3.82 µM | [40] 3.37 µM | [41] 2.76 µM | [42] 2.33 µM | [43] 2.86 µM | [44] 4.02 µM | [45] 1.85 µM | [46] 2.41 µM | [47] 4.38 µM | [48] 8.69 µM | [49] 3.24 µM | [50] 3.44 µM | [51] 2.7 µM | [52] 7.28 µM | [53] 9.77 µM | [54] 2.92 µM | [55] 5.05 µM | [56] 2.64 µM | [57] 5.46 µM | [58] 3.39 µM | [59] 4.58 µM
2.47 µM: [39]

Reference: ChEMBL document CHEMBL1201862, “PubChem BioAssay data set” (2004)
